Results as given in ChEMBL document CHEMBL2074534, “In vitro P-glycoprotein affinity for atypical and conventional antipsychotics” (Life Sci, 2002).

biological target: MDR1 (P-glycoprotein, ABCB1) (Homo sapiens, UniProt P08183); assay: TP_TRANSPORTER: ATP hydrolysis in membranes from MDR1-expressing insect cells; format: functional, cell membranes, insect cell, Membrane
Sequence (P08183 whole entry): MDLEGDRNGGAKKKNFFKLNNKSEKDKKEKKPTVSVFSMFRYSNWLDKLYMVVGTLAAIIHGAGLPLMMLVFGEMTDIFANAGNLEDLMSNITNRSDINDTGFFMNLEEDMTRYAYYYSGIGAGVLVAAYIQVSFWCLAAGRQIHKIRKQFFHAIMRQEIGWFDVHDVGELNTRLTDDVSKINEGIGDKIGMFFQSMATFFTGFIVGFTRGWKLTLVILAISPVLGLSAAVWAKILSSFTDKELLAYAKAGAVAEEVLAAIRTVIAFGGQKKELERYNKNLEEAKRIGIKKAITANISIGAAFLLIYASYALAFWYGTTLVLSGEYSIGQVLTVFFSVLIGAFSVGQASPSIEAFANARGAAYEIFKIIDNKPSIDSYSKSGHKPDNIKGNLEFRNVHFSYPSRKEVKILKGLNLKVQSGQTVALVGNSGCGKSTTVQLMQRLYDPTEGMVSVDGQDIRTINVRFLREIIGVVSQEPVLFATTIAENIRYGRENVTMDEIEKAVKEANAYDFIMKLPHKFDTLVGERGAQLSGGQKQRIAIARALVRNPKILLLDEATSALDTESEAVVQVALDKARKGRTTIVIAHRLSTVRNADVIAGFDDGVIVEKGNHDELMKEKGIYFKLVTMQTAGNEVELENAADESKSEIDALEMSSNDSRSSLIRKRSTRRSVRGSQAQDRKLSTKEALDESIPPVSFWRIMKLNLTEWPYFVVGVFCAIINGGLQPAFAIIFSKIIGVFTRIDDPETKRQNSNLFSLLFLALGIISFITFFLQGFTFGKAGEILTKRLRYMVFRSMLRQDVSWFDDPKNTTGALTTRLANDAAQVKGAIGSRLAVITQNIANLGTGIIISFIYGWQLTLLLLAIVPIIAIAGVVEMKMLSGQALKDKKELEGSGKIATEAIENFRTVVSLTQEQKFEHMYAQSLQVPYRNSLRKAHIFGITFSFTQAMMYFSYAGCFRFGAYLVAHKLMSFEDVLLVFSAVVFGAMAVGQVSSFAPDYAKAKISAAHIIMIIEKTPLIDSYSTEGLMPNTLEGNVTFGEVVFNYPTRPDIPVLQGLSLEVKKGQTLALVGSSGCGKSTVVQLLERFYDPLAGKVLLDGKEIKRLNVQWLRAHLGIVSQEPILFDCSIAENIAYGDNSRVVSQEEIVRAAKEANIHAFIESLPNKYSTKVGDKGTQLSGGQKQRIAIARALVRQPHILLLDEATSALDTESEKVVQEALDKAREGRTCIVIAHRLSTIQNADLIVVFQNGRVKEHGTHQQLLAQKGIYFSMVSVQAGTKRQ

`O=C(CCCN1CCC(O)(c2ccc(Cl)cc2)CC1)c1ccc(F)cc1` [HALOPERIDOL] and `CN(C)CCCN1c2ccccc2Sc2ccc(Cl)cc21` [CHLORPROMAZINE] are within 1.5-fold of each other in Km: 33 µM for the first, 27.4 µM for the second.

In the case of `Cc1cc2c(s1)Nc1ccccc1N=C2N1CCN(C)CC1` [OLANZAPINE], the Km was 8.3 µM.
